Measurements as given in patent US9872922B2, “Anti-EFNA4 antibody-drug conjugates” (PFIZER, INC., priority 2013, dated 2018).

How the values were obtained:
[1] = test system: Ovarian-39 (OV39) ovarian cancer PDX; assay: In vivo efficacy, OV39 ovarian cancer PDX; design: species or system NOD/SCID mice (human tumor PDX); details: for mean tumor volume: 1.5 mg/kg
[2] = test system: Ovarian-44 (OV44) ovarian cancer PDX; assay: In vivo efficacy, OV44 ovarian cancer PDX; design: species or system NOD/SCID mice (human tumor PDX); details: 5 mpk, once a week for 2 cycles
[3] = test system: Ovarian-63 (OV63) ovarian cancer PDX; assay: In vivo efficacy, OV63 ovarian cancer PDX; design: species or system NOD/SCID mice (human tumor PDX); mean tumor volume: unit not given beside the values; details: for mean tumor volume: 5.0 mg/kg
BR25 = assay: In vivo efficacy, BR25 TNBC Claudin-low tumor model; design: species or system mice; details: 1.5 mpk
Source text: (§1) In breast and ovarian models, tumor regression was defined as a reduction in mean tumor volume after dosing. TGI=Tumor Growth Inhibition. % TGI=[1−(Mean Tumor Volume of Treated)/(Mean Tumor Volume of Vehicle)]. […] ADC dose levels are listed in mg/kg according to antibody content.

[4] = test system: Breast-5 (BR5) triple-negative breast cancer (TNBC) PDX; assay: In vivo efficacy, BR5 TNBC PDX; design: species or system NOD/SCID mice (human tumor PDX); details: for tumor volume ± SEM: 1.5 mg/kg
[5] = test system: Breast-31 (BR31) TNBC PDX; assay: In vivo efficacy, BR31 TNBC PDX; design: species or system NOD/SCID mice (human tumor PDX); details: for mean tumor volume: 1.5 mg/kg
[6] = test system: Breast-13 (BR13) TNBC PDX; assay: In vivo efficacy, BR13 TNBC PDX; design: species or system NOD/SCID mice (human tumor PDX); details: for tumor volume ± SEM: 1.5 mg/kg
BR64 = assay: In vivo efficacy, BR64 TNBC Claudin-low tumor model; design: species or system mice; details: 1.5 mpk
Source text: as §1

[7] = test system: Breast-56 (BR56) TNBC PDX; assay: In vivo efficacy, BR56 TNBC PDX; design: species or system NOD/SCID mice (human tumor PDX); details: for tumor volume ± SEM: 1.5 mg/kg
[8] = test system: Breast-22 (BR22) TNBC PDX; assay: In vivo efficacy, BR22 TNBC PDX; details: for tumor volume ± SEM: 1.5 mg/kg
Source text: as §1

BR17 = assay: In vivo efficacy, BR17 HER2+ breast tumor model; design: species or system mice; details: 1.5 mpk
Source text: as §1

N.N.[Cl][Pt][Cl] [Cisplatin, cisplatin, reference compound]
Regression (TTP, Days) ([1]; 5 mpk, once a week for 2 cycles, OV39): Regression (28) Days | Regression (TTP, Days) [2]: Regression (60) Days | mean tumor volume ([3]; Day 0): 153 ± 22 | mean tumor volume ([3]; Day 5): 146 ± 27 | mean tumor volume ([3]; Day 18): 198 ± 29 | mean tumor volume ([3]; Day 25): 205 ± 36 | mean tumor volume ([3]; Day 32): 238 ± 49 | mean tumor volume ([3]; Day 39): 221 ± 40 | mean tumor volume ([3]; Day 47): 243 ± 42 | mean tumor volume ([3]; Day 53): 265 ± 63 | mean tumor volume ([3]; Day 60): 296 ± 80 | mean tumor volume ([3]; Day 67): 265 ± 82 | % TGI ([3]; 5 mpk, once a week for 2 cycles, OV63 PDX): 35% TGI

COc1cccc2c1C(=O)c1c(O)c3c(c(O)c1C2=O)C[C@@](O)(C(=O)CO)C[C@@H]3O[C@H]1C[C@H](N)[C@H](O)[C@H](C)O1 [Doxorubicin, doxorubicin, reference compound]
Regression (TTP, Days) or % TGI (BR25): No activity | tumor volume ± SEM ([4]; Day 0): 166 ± 18 mm^3 | tumor volume ± SEM ([4]; Day 7): 494 ± 70 mm^3 | tumor volume ± SEM ([4]; Day 11): 752 ± 92 mm^3 | tumor volume ± SEM ([4]; Day 18): 966 ± 32 mm^3 | % TGI ([4]; 1.5 mpk, BR5 PDX): 44% TGI | impact on tumor growth ([4]; in vivo): neither the control ADC nor doxorubicin standard-of-care (SOC) impacted tumor growth | mean tumor volume ([1]; Day 0): 186 ± 33 | mean tumor volume ([1]; Day 7): 282 ± 50 | mean tumor volume ([1]; Day 14): 171 ± 32 | mean tumor volume ([1]; Day 17): 122 ± 24 | mean tumor volume ([1]; Day 24): 83 ± 11 | mean tumor volume ([1]; Day 28): 118 ± 17 | mean tumor volume ([1]; Day 35): 361 ± 40 | mean tumor volume ([1]; Day 42): 712 ± 97 | mean tumor volume ([1]; Day 49): 966 ± 85 | mean tumor volume ([5]; Day 0): 160 ± 11 | mean tumor volume ([5]; Day 7): 304 ± 20 | mean tumor volume ([5]; Day 14): 458 ± 24 | mean tumor volume ([5]; Day 21): 592 ± 56 | mean tumor volume ([5]; Day 28): 759 ± 111 | % TGI ([5]; 1.5 mpk, BR31 PDX): 30% TGI | impact on tumor growth ([5]; in vivo): neither the control ADC nor doxorubicin SOC impacted tumor growth | tumor volume ± SEM ([6]; Day 0): 167 ± 13 mm^3 | tumor volume ± SEM ([6]; Day 7): 178 ± 20 mm^3 | tumor volume ± SEM ([6]; Day 22): 322 ± 38 mm^3 | tumor volume ± SEM ([6]; Day 14): 227 ± 25 mm^3 | tumor volume ± SEM ([6]; Day 28): 326 ± 34 mm^3 | % TGI ([6]; 1.5 mpk, BR13): 16% TGI | impact on tumor growth ([6]; in vivo): neither the control ADC nor doxorubicin SOC impacted tumor growth | Regression (TTP, Days) or % TGI (BR64): No activity | tumor volume ± SEM ([7]; Day 0): 141 ± 13 mm^3 | tumor volume ± SEM ([7]; Day 4): 182 ± 11 mm^3 | tumor volume ± SEM ([7]; Day 11): 267 ± 31 mm^3 | tumor volume ± SEM ([7]; Day 18): 318 ± 32 mm^3 | tumor volume ± SEM ([7]; Day 25): 374 ± 50 mm^3 | % TGI ([7]; 1.5 mpk, BR56 PDX): 49% TGI | impact on tumor growth ([7]; in vivo): neither the control ADC nor doxorubicin SOC impacted tumor growth | tumor volume ± SEM ([8]; Day 0): 244 ± 17 mm^3 | tumor volume ± SEM ([8]; Day 7): 416 ± 61 mm^3 | tumor volume ± SEM ([8]; Day 14): 553 ± 39 mm^3 | tumor volume ± SEM ([8]; Day 21): 729 ± 91 mm^3 | % TGI ([8]; 1.5 mpk, BR22 PDX): 27% TGI | impact on tumor growth ([8]; in vivo): Neither the control ADC nor doxorubicin SOC impacted tumor growth | % TGI (BR17): 66% TGI
